Experimental data reported in PMC11435058, “Synthesis of New Thiazole-Privileged Chalcones as Tubulin Polymerization Inhibitors with Potential Anticancer Activities” (Pharmaceuticals, 2024).

Key:
[1] = system: COLO 205; experiment: NCI-60 anticancer screen (SRB; single dose and five doses); settings: Homo sapiens; for GI50 / IC50: COLO 205; for activity at 10 µM: COLO 205, 48 h, read-out: Growth Percentage; for CC50: COLO 205, read-out: LC50; for IC (TGI): COLO 205, read-out: TGI
[2] = system: IGROV1; experiment: as above; settings: Homo sapiens; for GI50 / IC50: IGROV-1; for activity at 10 µM: IGROV-1, 48 h, read-out: Growth Percentage; for CC50: IGROV-1, read-out: LC50; for IC (TGI): IGROV-1, read-out: TGI
[3] = system: NCI-H23; experiment: as above; settings: Homo sapiens; for GI50 / IC50: NCI-H23; for activity at 10 µM: NCI-H23, 48 h, read-out: Growth Percentage; for CC50: NCI-H23, read-out: LC50; for IC (TGI): NCI-H23, read-out: TGI
[4] = system: RXF 393; experiment: as above; settings: Homo sapiens; for GI50 / IC50: RXF 393; for activity at 10 µM: RXF 393, 48 h, read-out: Growth Percentage; for CC50: RXF 393, read-out: LC50; for IC (TGI): RXF 393, read-out: TGI
[5] = system: CCRF-CEM; experiment: NCI-60 anticancer screen (SRB; single dose 10 μM and five doses); settings: Homo sapiens; for activity at 10 µM: 48 h, read-out: Growth Percentage; for IC (TGI): read-out: TGI; for IC50: five-dose, Leukemia CCRF-CEM
[6] = system: tubulin; experiment: In vitro tubulin polymerization inhibition assay; type: biochemical; settings: 4 mg/mL tubulin, 37°C, absorbance at 340 nm
Method: 4.2.2. In Vitro Tubulin Polymerization Inhibition Assay.
2p, and the reference drug CD -4) with the microtubule system. Specifically, the in vitro inhibition of tubulin polymerization was evaluated for these compounds. The standard tubulin polymerization reaction was carried out, containing 100 μL of 4 mg/mL tubulin in a buffer solution of 80 mM PIPES (pH 6.9), 0.5 mM EGTA, 2 mM MgCl2, and 1 mM GTP. Polymerization was initiated by incubating the reaction […]
Under these conditions, polymerization typically reaches a maximum absorbance of […]
growth, and steady state. In this experimental set up, an absorbance of 0.1 at 340 nm corresponds to approximately 1 mg/mL of polymerized tubulin, meaning that around […]
40% of the tubulin is polymerized, allowing for the detection of both enhancers and inhibitors of polymerization. The inhibitory effect of each compound on tubulin polymerization was quantified by determining the IC50 values, which were reported as the mean ± standard deviation from three independent experiments. […]

[7] = system: SK-MEL-2; experiment: NCI-60 anticancer screen (SRB; single dose and five doses); settings: Homo sapiens; for GI50 / IC50: SK-MEL-2; for activity at 10 µM: SK-MEL-2, 48 h, read-out: Growth Percentage; for CC50: SK-MEL-2, read-out: LC50; for IC (TGI): SK-MEL-2, read-out: TGI
[8] = system: OVCAR-8; experiment: as above; settings: Homo sapiens; for GI50 / IC50: OVCAR-8; for activity at 10 µM: OVCAR-8, 48 h, read-out: Growth Percentage; for CC50: OVCAR-8, read-out: LC50; for IC (TGI): OVCAR-8, read-out: TGI

Row | Compound | GI50 [1] [µM] | activity at 10 µM [1] [%] | CC50 [1] [µM] | IC (TGI) [1] [µM] | GI50 [2] [µM] | CC50 [2] [µM] | IC (TGI) [2] [µM] | GI50 [3] [µM] | activity at 10 µM [3] [%] | CC50 [3] [µM] | IC (TGI) [3] [µM] | GI50 [4] [µM] | activity at 10 µM [4] [%] | CC50 [4] [µM] | IC (TGI) [4] [µM] | GI50 [5] [µM] | activity at 10 µM [5] [%] | IC (TGI) [5] [µM] | IC50 [6] [µM] | GI50 [7] [µM] | also measured
1 | Cc1[nH]c(=S)sc1C(=O)/C=C/c1ccc(Br)cc1 [2g, (E)-3-(4-Bromophenyl)-1-(4-Methyl-2-Thioxo-2,3-Dihydrothiazol-5-yl)Prop-2-En-1-One] | 13.9 | 90 | 80 | 33.3 | 3.29 | 53.4 | 11.9 | 8.23 | 65 | 48 | 21.3 | 2.58 | 16 | 33 | 9.43 | 3.06 | -11 | 61.5 | 18.5 | 5.87 | activity at 10 µM [2]: 37.1%; activity at 10 µM [7]: 62.3%; CC50 [7]: 47.9 µM; IC (TGI) [7]: 19.5 µM; GI50 [8]: 2.86 µM; activity at 10 µM [8]: -34.1%; CC50 [8]: 37.1 µM; IC (TGI) [8]: 8.77 µM
2 | Cc1[nH]c(=S)sc1C(=O)/C=C/c1cccc([N+](=O)[O-])c1 [2h, (E)-1-(4-Methyl-2-Thioxo-2,3-Dihydrothiazol-5-yl)-3-(3-Nitrophenyl)Prop-2-En-1-One] | 5.75 | -24.9 | 51.3 | 19.1 | 3.02 | 47.9 | 12.3 | 5.37 | -72.8 | 45.7 | 18.2 | 10.2 | -91.9 | 47.9 | 22.4 | 2.14 | 13.8 | 6.61 | 12.5 | 12.6 | IC50 [1]: 8.71 µM; IC50 [2]: 4.9 µM; activity at 10 µM [2]: 10.2%; IC50 [3]: 10 µM; IC50 [4]: 24.6 µM; IC50 [5]: 3.39 µM; CC50 ([5]; read-out: LC50): > 100 µM; IC50 [7]: 26.9 µM; activity at 10 µM [7]: 16.9%; CC50 [7]: 53.7 µM; IC (TGI) [7]: 26.3 µM; GI50 [8]: 3.31 µM; IC50 [8]: 4.57 µM; activity at 10 µM [8]: 13.4%; CC50 [8]: 38 µM; IC (TGI) [8]: 11.8 µM
3 | COc1cc(/C=C/C(=O)c2sc(=S)[nH]c2C)cc(OC)c1OC [2p, (E)-1-(4-Methyl-2-Thioxo-2,3-Dihydrothiazol-5-yl)-3-(3,4,5-Trimethoxyphenyl)Prop-2-En-1-One] | 16.2 | 81.7 | 70.8 | 33.9 | 3.31 | > 100 | 13.8 | 2.95 | 7.27 | 44.7 | 10.5 | 2.51 | 30.3 | 30.9 | 7.08 | 2.45 | 4.92 | 8.71 | 25.1 | 3.09 | IC50 [1]: 28.8 µM; IC50 [2]: 5.75 µM; IC50 [3]: 5.25 µM; IC50 [4]: 11.2 µM; IC50 [5]: 3.55 µM; IC50 [7]: 11 µM; activity at 10 µM [7]: 34.9%; CC50 [7]: 42.7 µM; IC (TGI) [7]: 11.5 µM; GI50 [8]: 2.14 µM; IC50 [8]: 3.55 µM; activity at 10 µM [8]: 4.32%; CC50 [8]: 45.7 µM; IC (TGI) [8]: 5.5 µM
